Measurements taken from patent US4012367A, “Anti-ulcer polypeptides containing L-aspartic acid and intermediates thereto” (G. D. Searle & Co., priority 1976, dated 1977).
Non-standard residues stand in square brackets, D forms with d. Residues, ends and D or L forms follow the SMILES beside them. *: point of attachment. Boc = CC(C)(C)OC(=O)*

Test system: gastric acid secretion induced by the administration of pentagastrin
Experiment: Inhibition of pentagastrin-induced gastric acid secretion in anesthetized rats with perfused stomach (modified Ghosh and Schild)
Type: in vivo
Design: key to rating in assay: antagonism of the secretory response induced by pentagastrin: A test compound is considered active if the standard pentagastrin response is blocked to the extent of at least 50%
Settings: urethane-anesthetized male Charles River rats, gastric effluent pH, pentagastrin 0.1 mcg./rat intravenously
From the text: The compounds of the present invention are useful in consequence of their valuable pharmacological properties. They are, for example, gastric anti-secretory agents as evidenced by their ability to inhibit the gastric acid secretion induced by the administration of pentagastrin.
The assay utilized for detection of that property is a modification of the procedure described by Ghosh and Schild, J. Physiol., Lond., 128:35-36P (1955); Br. J. Pharmacol. Chemother., […]:54-61 (1958); and by Smith et al., Br. J. Pharmacol., 38:206-213 (1970). The details of that assay are as follows:
A group of male Charles River rats weighing 300-400 g. are anesthetized by the intramuscular administration of urethane at a dose of 1.5 g./kg. The trachea is exposed and cannulated and a polyethylene tube is passed through the esophagus into the cardiac junction of the stomach and is ligated in place in the neck, excluding the vagal nerves. The external jugular vein is exposed and cannulated to facilitate intravenous administration. The femoral artery is exposed and cannulated for recording of blood pressure. The abdomen is opened. […] The test compounds are evaluated for their ability to antagonize the secretory response induced by the administration of pentagastrin. […]

SMILES	inhibition of gastric acid secretion induced by pentagastrin (result in words)	rating in assay: antagonism of the secretory response induced by pentagastrin
CSCC[C@H](NC(=O)OC(C)(C)C)C(=O)N[C@@H](CC(=O)O)C(=O)N[C@H](C)C(N)=O [N-t-butoxycarbonyl-L-methionyl-L-aspartyl-D-alanine amide] (Boc-Met-Asp-[dA]-NH2)	particularly active	
CSCC[C@H](NC(=O)[C@H](Cc1c[nH]c2ccccc12)NC(=O)OC(C)(C)C)C(=O)N[C@@H](CC(=O)O)C(=O)N[C@H](C)C(N)=O [N-t-butoxycarbonyl-L-tryptophanyl-L-methionyl-L-aspartyl-D-alanine amide] (Boc-WMD[dA]-NH2)		active
